Measurements as given in BindingDB's records for doi:10.1021/jm00129a011 (Csiro Division of Chemicals and Polymers, 1989).

Molecular target: Alpha-mannosidase (Canavalia ensiformis)
Assay: Inhibitory activity against Mannosidase in jack bean (Canavalia ensiformis)

Row | IC50 [nM] | Compound
1 | 500 | OC[C@@H](O)[C@H]1NC[C@@H](O)[C@H]1O
2 | 600 | C[C@@H](O)[C@H]1NC[C@@H](O)[C@H]1O
